Experimental findings from PubChem BioAssay (NCI) are described below.

Some test systems named below: SN12C renal; T-47D breast; HT29 colon; OVCAR-5 ovarian; MALME-3M melanoma; RPMI-8226 leukemia; SNB-19 CNS; SR leukemia; HOP-62 NSCLC; UACC-257 melanoma.
Common to all, as to assay: NCI tumour cell line growth inhibition, 48 h

Molecules are shown by their SMILES.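 Values below derive from 48-hour exposures of cells grown in 96-well plates, with endpoints linearly interpolated between the two concentrations bracketing the appropriate inhibition level. GI50 is the concentration that inhibits growth by half. TGI: total growth inhibition.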

On to `Cc1c(F)c(N)c2c(=O)cc(-c3ccc(NC(=O)C(N)CCCN=C(N)N)c(F)c3)oc2c1F` (stereo not given), for which the TGI in the assay on SN12C renal was 45.2 µM; in the assay on T-47D breast, greater than 100 µM; in the assay with HT29 colon, greater than 100 µM; in the assay on OVCAR-5 ovarian, greater than 50 µM; in the assay on MALME-3M melanoma, 62.5 µM; in the assay on RPMI-8226 leukemia, greater than 100 µM. In addition, the TGI in the assay with SNB-19 CNS is greater than 100 µM; in the assay on SR leukemia, greater than 100 µM; with HOP-62 NSCLC it was 99.6 µM; with UACC-257 melanoma, 7.41 µM.

As to `O=C(O)/C=C/C(=O)O`, the TGI with SN12C renal, in the assay with T-47D breast, with HT29 colon, in the assay with OVCAR-5 ovarian, with MALME-3M melanoma and with RPMI-8226 leukemia was greater than 100 µM throughout. Further, the TGI in the assay with SNB-19 CNS, with SR leukemia, in the assay on HOP-62 NSCLC and with UACC-257 melanoma was greater than 100 µM each time.

For the molecule `O=c1[nH]c2ccccc2c2oc(-c3ccccc3)nc12`, the TGI in the assay with SN12C renal is 43.4 µM; in the assay on T-47D breast it was greater than 100 µM; in the assay on HT29 colon, greater than 100 µM; with OVCAR-5 ovarian it was greater than 100 µM; in the assay with MALME-3M melanoma, greater than 100 µM; in the assay on RPMI-8226 leukemia it was 70 µM. Further, the TGI in the assay with SNB-19 CNS was 80.8 µM; in the assay with SR leukemia, 70.7 µM; with HOP-62 NSCLC, 39 µM; with UACC-257 melanoma, greater than 100 µM.

As to `CCOC(=O)C(=Cn1c(=S)[nH]c2ccc([N+](=O)[O-])cc21)C(=O)OCC`, the TGI in the assay with SN12C renal, in the assay on T-47D breast, in the assay with HT29 colon, with OVCAR-5 ovarian, in the assay with MALME-3M melanoma and with RPMI-8226 leukemia was greater than 100 µM throughout. Moreover, the TGI with SNB-19 CNS, with SR leukemia, with HOP-62 NSCLC and in the assay with UACC-257 melanoma was greater than 100 µM in each case.

For the molecule `O=C(Nc1cccc(-n2ccc3c(NC(=O)c4ccccc4)nccc32)c1)c1cc(N2CCOCC2)cc(C(F)(F)F)c1`, the GI50 in the assay on SN12C renal is 0.467 µM; with T-47D breast, greater than 51.8 µM; with HT29 colon, 0.0312 µM; in the assay with OVCAR-5 ovarian it was 0.696 µM; with MALME-3M melanoma, 1.25 µM; in the assay on RPMI-8226 leukemia, 0.223 µM. Further, the GI50 with SNB-19 CNS was 0.379 µM; with SR leukemia it was 0.0583 µM; in the assay with HOP-62 NSCLC, 0.168 µM; in the assay with UACC-257 melanoma it was 0.109 µM. For the same molecule, the TGI in the assay with SN12C renal is greater than 100 µM; in the assay on T-47D breast, greater than 100 µM; in the assay on HT29 colon, 0.446 µM; in the assay on OVCAR-5 ovarian, greater than 100 µM; in the assay with MALME-3M melanoma, greater than 100 µM; in the assay with SNB-19 CNS it was greater than 100 µM. The TGI in the assay with HOP-62 NSCLC and in the assay with UACC-257 melanoma was greater than 100 µM throughout.

Regarding `N#Cc1nc(/C=C/c2ccccc2)oc1N`, the TGI in the assay with SN12C renal, with T-47D breast, in the assay on HT29 colon, in the assay on OVCAR-5 ovarian, in the assay on MALME-3M melanoma and with RPMI-8226 leukemia was greater than 100 µM each time. Besides, the TGI with SNB-19 CNS was greater than 100 µM; in the assay with SR leukemia, 2.9 µM; in the assay on HOP-62 NSCLC it was greater than 100 µM; in the assay with UACC-257 melanoma it was greater than 100 µM.

In the case of `CC1(C)[C@@H]2C[C@H]1C(Cc1cccc(C[C@H]3c4cc(-c5ccccn5)ncc4[C@H]4C[C@@H]3C4(C)C)c1)c1cc(-c3ccccn3)ncc12` (stereo not given in full), the TGI was greater than 100 µM in the assay on SN12C renal; greater than 100 µM in the assay with T-47D breast; greater than 100 µM in the assay with HT29 colon; greater than 100 µM with OVCAR-5 ovarian; 44.9 µM in the assay with MALME-3M melanoma; 32.1 µM in the assay with RPMI-8226 leukemia. Besides, the TGI was greater than 100 µM in the assay on SNB-19 CNS, 2.63 µM in the assay with SR leukemia, 15.5 µM in the assay with HOP-62 NSCLC and greater than 42.4 µM with UACC-257 melanoma. The GI50 in the assay on MALME-3M melanoma is 3.65 µM; in the assay on SR leukemia, 0.439 µM.

Take `O=[N+]([O-])c1ccc(Cl)cc1C=NC12CC3CC(CC(C3)C1)C2`: the TGI in the assay with SN12C renal is greater than 100 µM; with T-47D breast, greater than 93.8 µM; in the assay with HT29 colon, greater than 79.9 µM; in the assay with OVCAR-5 ovarian, greater than 100 µM; in the assay on MALME-3M melanoma, greater than 94 µM; in the assay with RPMI-8226 leukemia, 57.5 µM. The TGI with SNB-19 CNS was greater than 100 µM; with SR leukemia it was 26.4 µM; in the assay on HOP-62 NSCLC it was greater than 100 µM; in the assay on UACC-257 melanoma, greater than 31.6 µM.

On to `CC(=O)NC1=CC(=O)c2cc(C)cc(O)c2C1=O`, for which the TGI was determined as 14.2 µM in the assay with SN12C renal; 35 µM with T-47D breast; 46.9 µM in the assay with HT29 colon; 26.1 µM with OVCAR-5 ovarian; 4.33 µM with MALME-3M melanoma; 12.2 µM in the assay with RPMI-8226 leukemia. Further, the TGI was greater than 62.7 µM in the assay with SNB-19 CNS, 37.3 µM in the assay on SR leukemia, 35.2 µM with HOP-62 NSCLC and 4.79 µM in the assay on UACC-257 melanoma.

As for `COC(=O)CCN(CCC(=O)OC)C1CC1`, the TGI with SN12C renal, in the assay with T-47D breast, in the assay on HT29 colon, in the assay with OVCAR-5 ovarian, with MALME-3M melanoma and in the assay with RPMI-8226 leukemia was greater than 100 µM in each case. Moreover, the TGI in the assay on SNB-19 CNS, in the assay on SR leukemia, in the assay on HOP-62 NSCLC and in the assay with UACC-257 melanoma was greater than 100 µM each time.

For `O=C(NN1C(=O)C=CC1=O)c1ccccc1Nc1ccccc1C(=O)NN1C(=O)C=CC1=O`, the TGI with SN12C renal, with T-47D breast, in the assay with HT29 colon, in the assay on OVCAR-5 ovarian, in the assay with MALME-3M melanoma and with RPMI-8226 leukemia was greater than 100 µM each time. Also, the TGI with SNB-19 CNS, with SR leukemia, in the assay on HOP-62 NSCLC and in the assay with UACC-257 melanoma was greater than 100 µM throughout.

Turning to `Cc1cccc2c1C/C(=C\c1cccc(C)c1C(=O)O)C2=O`, the TGI with SN12C renal, in the assay with T-47D breast, in the assay on HT29 colon, with OVCAR-5 ovarian, in the assay on MALME-3M melanoma and with RPMI-8226 leukemia was greater than 100 µM each time. Also, the TGI with SNB-19 CNS, in the assay with SR leukemia, in the assay on HOP-62 NSCLC and in the assay on UACC-257 melanoma was greater than 100 µM in each case.

Regarding `CC(=N\N=C\c1ccccn1)/C(C)=N/N=C(C)/C(C)=N/N=C(C)/C(C)=N/N=C/c1ccccn1`, the TGI in the assay with SN12C renal, in the assay with T-47D breast, in the assay on HT29 colon, in the assay with OVCAR-5 ovarian, with MALME-3M melanoma and in the assay on RPMI-8226 leukemia was greater than 100 µM each time. Besides, the TGI with SNB-19 CNS, in the assay on SR leukemia, in the assay with HOP-62 NSCLC and in the assay on UACC-257 melanoma was greater than 100 µM throughout.

Take `CCOC(=O)C(NCc1cccc(C(F)(F)F)c1)(NC(=O)c1ccccc1)C(F)(F)F` (stereo not given): the TGI in the assay on SN12C renal was greater than 100 µM; in the assay on T-47D breast, 80 µM; in the assay with HT29 colon, 48.5 µM; in the assay on OVCAR-5 ovarian, greater than 100 µM; in the assay on MALME-3M melanoma it was 69 µM; in the assay on RPMI-8226 leukemia, 94.6 µM. Also, the TGI was greater than 100 µM in the assay on SNB-19 CNS, greater than 100 µM in the assay on SR leukemia, greater than 100 µM in the assay on HOP-62 NSCLC and 68.7 µM in the assay on UACC-257 melanoma.

Consider `O=C(O)c1ccc(Nc2nc3ccccc3nc2C(=O)O)cc1`, for which the TGI with SN12C renal, in the assay with T-47D breast, in the assay with HT29 colon, in the assay on OVCAR-5 ovarian, in the assay on MALME-3M melanoma and with RPMI-8226 leukemia was greater than 100 µM each time. Besides, the TGI in the assay on SNB-19 CNS, with SR leukemia, in the assay with HOP-62 NSCLC and with UACC-257 melanoma was greater than 100 µM in each case.

In the case of `C#CCOC(=O)C(N)CCCN=C(N)N` (stereo not given), the TGI in the assay with SN12C renal, in the assay with T-47D breast, in the assay on HT29 colon, in the assay with OVCAR-5 ovarian, in the assay with MALME-3M melanoma and with RPMI-8226 leukemia was greater than 100 µM throughout. Further, the TGI in the assay with SNB-19 CNS, in the assay on SR leukemia, in the assay with HOP-62 NSCLC and with UACC-257 melanoma was greater than 100 µM each time.

Consider `COc1cc(/C=C/C(=O)OC[C@H](Br)[C@H](OC(C)=O)c2ccc3c(c2)OCO3)cc(OC)c1OC`, for which the TGI in the assay with SN12C renal, in the assay with T-47D breast, in the assay with HT29 colon, in the assay on OVCAR-5 ovarian, in the assay with MALME-3M melanoma and in the assay on RPMI-8226 leukemia was greater than 100 µM each time. Besides, the TGI in the assay with SNB-19 CNS, with SR leukemia, in the assay with HOP-62 NSCLC and in the assay on UACC-257 melanoma was greater than 100 µM throughout.
